Read-outs that look alike come from different tables or passages of the source.
Assay: Plasma pharmacokinetics of LMP744, non-compartmental
Type: in vivo, human
Conditions: for half-life / AUC(0-inf) / AUC(0-t) / Cmax / Tmax: human, plasma, intravenous
Procedure: Blood was collected during cycle 1 in the LMP744 study on C1D1 at the end of infusion (EOI), then again at 0.25, 0.5, 1, 2, 4, and 6 h after EOI. Blood was also collected prior to infusion and at EOI on days 2–5 during cycle 1, then again at 1 week (168 h) after C1D1 EOI. Samples were collected in EDTA tubes with 2 mL of blood per sample. Samples were centrifuged and plasma was stored at − 70 °C. Samples were analyzed using a validated LC–MS or LC–MS/MS method for each IIQ as previously described. Plasma-time data were analyzed using WinNonlin (Pharsight, Mountain View, CA). AUC values were calculated by non-compartmental analysis and end-of-infusion concentrations were measured on days 1 and 5 of cycle 1. Sample collection and analysis of LMP776 pharmacokinetics were performed as previously described.

## COc1cc2c3c(n(CCCNCCO)c(=O)c2cc1OC)-c1cc2c(cc1C3=O)OCO2 [LMP744]
DL1, 6 mg/m2, n=1
  Cl: 42.3 L/h/m2
  Vss: 1033.0 L/m2
  AUC(0-inf): 142 ng·h/mL
  AUC(0-t): 91.7 ng·h/mL
  Cmax: 48.4 ng/mL
  Tmax: 1 h
DL2, 12 mg/m2, n=1
  Cl: 74.0 L/h/m2
  Vss: 1369.0 L/m2
  AUC(0-inf): 162 ng·h/mL
  AUC(0-t): 117 ng·h/mL
  Cmax: 69.6 ng/mL
  Tmax: 1 h
DL3, 24 mg/m2, n=3
  Cl: 77.9 (11.2) L/h/m2
  Vss: 1312.7 L/m2
  AUC(0-inf): 313 ng·h/mL
  AUC(0-t): 234 ng·h/mL
  Cmax: 78.1 ng/mL
  Tmax: 1.6 h
DL4, 48 mg/m2, n=1
  Cl: 72.7 L/h/m2
  Vss: 828.0 L/m2
  AUC(0-inf): 800 ng·h/mL
  AUC(0-t): 632 ng·h/mL
  Cmax: 446 ng/mL
  Tmax: 1 h
DL5, 96 mg/m2, n=1
  Cl: 51.7 L/h/m2
  Vss: 836.6 L/m2
  AUC(0-inf): 1860 ng·h/mL
  AUC(0-t): 1390 ng·h/mL
  Cmax: 433 ng/mL
  Tmax: 1 h
DL6 (MTD), 190 mg/m2, n=16
  Cl: 59.1 (26.6) L/h/m2
  Vss: 845.0 L/m2
  AUC(0-inf): 4650 ng·h/mL
  AUC(0-t): 3770 ng·h/mL
  Cmax: 1570 ng/mL
  Tmax: 1 h
DL7, 260 mg/m2, n=10
  Cl: 73.8 (35.4) L/h/m2
  Vss: 867.8 L/m2
  AUC(0-inf): 4100 ng·h/mL
  AUC(0-t): 3580 ng·h/mL
  Cmax: 1500 ng/mL
  Tmax: 1 h
6 mg/m2, DL1, 6 mg/m2, n=1, read-out: t1/2 (converted)
  half-life: 23.4 h
12 mg/m2, DL2, 12 mg/m2, n=1, read-out: t1/2 (converted)
  half-life: 19.1 h
24 mg/m2, DL3, 24 mg/m2, n=3, read-out: t1/2 (converted)
  half-life: 14 h
48 mg/m2, DL4, 48 mg/m2, n=1, read-out: t1/2 (converted)
  half-life: 15.5 h
96 mg/m2, DL5, 96 mg/m2, n=1, read-out: t1/2 (converted)
  half-life: 16.2 h
190 mg/m2, DL6 (MTD), 190 mg/m2, n=16, read-out: t1/2 (mean half-life) (converted)
  half-life: 13.6 h
190 mg/m2, MTD (DL6, 190 mg/m^2, n = 16), read-out: Half-life, range
  half-life: 7.2 to 23.4 h
190 mg/m^2, patient 8, Hodgkin lymphoma, read-out: Longest drug half-life measured in this study (converted)
  half-life: 23.4 h
260 mg/m2, DL7, 260 mg/m2, n=10, read-out: t1/2 (converted)
  half-life: 10.9 h
In vivo
  Dependence of half-life on dose: did not vary with dose level
  Systemic exposure (AUC) versus dose level: increased linearly with dose level

Source: publication PMC12122562, “Phase 1 studies of the indenoisoquinolines LMP776 and LMP744 in patients with solid tumors and lymphomas” (Cancer Chemotherapy and Pharmacology, 2025)
